Columns and labels:
[1] = system: Nrf2 signaling pathway (HepG2 cells); experiment: Short exposure time course of Nrf2 activation in HepG2 Nrf2-driven promoter luciferase reporter cells; assay type: cell-based, human; details: 5 minutes exposure, washed off, read 24 hours later; compared with 1 or 2 hours exposure
Experimental: As an example of the short time course of PB201 exposure needed to activate the Nrf2 signaling pathway, HepG2 cells stably transfected with a Nrf2-driven promoter, luciferase reporter construct were treated with PB201 for 5 minutes, 1 hour, or 2 hours, then the PB201 was removed and washed off the cells, then 24 hours later the luciferase levels were measured by chemiluminescence to assay for Nrf2 activation.

[2] = system: Nrf2 (HepG2-ARE promoter/reporter cells); experiment: HepG2-ARE promoter/reporter cells, Nrf2 activation (chemiluminescent signal, RLU); assay type: cell-based, human; details: for Nrf2 activation level: 4.2 ug/mL, unstimulated baseline 7182 RLU; for Nrf2 activation (chemiluminescent signal, RLU): HepG2-ARE cells
Experimental: In this example, approaches were used to increase the aqueous distribution of the otherwise relatively insoluble 1,3-diphenyl-1,3-propanedione (DBM) by adding 2-hydroxypropyl beta-cyclodextrin (HPBCD) at a molar ratio (DBM:HPBCD) of 1:3. […] To verify its presence in the aqueous solutions, the samples were tested for activity of PB201 using HepG2-ARE promoter/reporter cells, which are responsive to PB201 and other Nrf2-activators by promoting the expression of luciferase.
Furthermore, the Nrf2 activation by the 1,3-diphenyl-1,3-propanedione, with or without solubility enhancing agents such as HPBCD, is temporary, not permanent, and can be repeated; for example the Nrf2 activation by 4.2 ug/mL 1,3-diphenyl-1,3-propanedione decreases from its level at 17 hours (72,949 RLU) to 24 hours (47,121 RLU) after stimulation, and is nearly back to its baseline, unstimulated levels (7182 RLU) by 48 hours (11,659 RLU). Similarly, other types of agents can be utilized to increase aqueous levels of 1,3-diphenyl-1,3-propanedione including, but not limited to, surfactants, liposomes, amphiphiles, emulsifiers, and complexing agents to make solutions or suspensions.

[3] = system: radiation-induced oral mucositis (cheek pouch ulceration); experiment: Radiation-induced oral mucositis in hamster cheek pouch; assay type: in vivo, Syrian Golden Hamsters; details: 40 Gy day 0; topical cheek pouch 1 to 10 μg PB201 3×/day days 0 to 28; scored days 6 to 28
Experimental: In this example, a single dose of radiation (40 Gy) was given on day 0 to the isolated cheek pouch and PB201 treatment was given by topical cheek pouch administration of 1 to 10 μg PB201 given three times daily from days 0 to 28 as 0.2 mL of 5 μg/mL given 3×/day or 0.2 mL of 50 μg/mL given 3×/day, and oral mucositis was determined as cheek pouch ulceration, scored every 2 days from days 6 to 28. Mucositis was scored visually by comparison to a validated photographic scale, ranging from 0 (normal) to 5 (severe ulceration). In descriptive terms, this scale is defined as follows.
A score of 1-2 is considered to represent a mild stage of the disease, whereas a score of 3-5 is considered to indicate moderate to severe mucositis.

Structure (SMILES): O=C(CC(=O)c1ccccc1)c1ccccc1 [PB201, 1,3-diphenyl-1,3-propanedione]
- Nrf2 response (luciferase chemiluminescence) [1]: strong Nrf2 response similar to 1 or 2 hours of exposure
- Nrf2 activation level ([2]; 17 hours after stimulation): 72,949 RLU
- Nrf2 activation level ([2]; 48 hours after stimulation): 11,659 RLU
- Nrf2 activation (chemiluminescent signal, RLU) ([2]; PB201 in HPBCD/PBS): activated
- Nrf2 activation (chemiluminescent signal, RLU) ([2]; PB201 in PBS alone): not by PB201 in PBS alone
- Protection against oral mucositis (cheek pouch ulceration score 0-5) [3]: protected against the oral mucositis

Reference: patent US20240000724A1, “Compositions and Methods for Treatment or Prevention of Oral Mucositis” (PATHWAYS BIOSCIENCE, LLC, priority 2015, published 2024)
